Laboratory results from ChEMBL document CHEMBL5465560, “Selectivity Literature for EUbOPEN Chemogenomic Library” (2024).

What was measured:
[1] = target: Mitogen-activated protein kinase 11 (Homo sapiens) (UniProt Q15759); assay: Selectivity interaction (Millipore kinase profiler) EUB0000124b MAPK11; details: at 10 µM
[2] = target: BDNF/NT-3 growth factors receptor (Homo sapiens) (UniProt Q16620); assay: Selectivity interaction (KinomeScan (DiscoverX)) EUB0001049a NTRK2; details: at 1 µM
[3] = target: Sodium-dependent serotonin transporter (Homo sapiens, UniProt P31645); assay: Selectivity interaction (Panel of kinases, GPCRs, ion channels and transporters (enzymatic assay)) EUB0000266bCl SLC6A4
Chain of Sodium-dependent serotonin transporter (P31645 whole entry, looked up): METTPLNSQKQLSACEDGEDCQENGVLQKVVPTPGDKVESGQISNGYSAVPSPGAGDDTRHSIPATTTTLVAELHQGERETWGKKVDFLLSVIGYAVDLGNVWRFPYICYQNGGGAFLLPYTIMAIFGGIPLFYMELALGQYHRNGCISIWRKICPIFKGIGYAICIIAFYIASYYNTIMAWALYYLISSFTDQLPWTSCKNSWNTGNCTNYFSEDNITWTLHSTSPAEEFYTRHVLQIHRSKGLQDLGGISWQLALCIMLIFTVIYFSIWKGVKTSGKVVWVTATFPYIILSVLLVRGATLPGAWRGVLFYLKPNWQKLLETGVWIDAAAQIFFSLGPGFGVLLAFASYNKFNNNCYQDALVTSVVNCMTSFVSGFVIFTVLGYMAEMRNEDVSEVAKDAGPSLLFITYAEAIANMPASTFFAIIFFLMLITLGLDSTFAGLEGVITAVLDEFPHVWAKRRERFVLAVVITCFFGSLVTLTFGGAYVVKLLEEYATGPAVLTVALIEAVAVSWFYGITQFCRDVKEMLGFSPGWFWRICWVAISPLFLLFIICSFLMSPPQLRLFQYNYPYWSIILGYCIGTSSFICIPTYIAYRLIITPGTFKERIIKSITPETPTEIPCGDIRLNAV

[4] = target: Serine/threonine-protein kinase 32A (Homo sapiens) (UniProt Q8WU08); assay: Selectivity interaction (Ambit KINOMEscan and KiNATiv profiling in Jurkat cells) EUB0000090b STK32A; assay type: cell-based; details: at 1 µM
Chain of Serine/threonine-protein kinase 32A (Homo sapiens) (Q8WU08 whole entry): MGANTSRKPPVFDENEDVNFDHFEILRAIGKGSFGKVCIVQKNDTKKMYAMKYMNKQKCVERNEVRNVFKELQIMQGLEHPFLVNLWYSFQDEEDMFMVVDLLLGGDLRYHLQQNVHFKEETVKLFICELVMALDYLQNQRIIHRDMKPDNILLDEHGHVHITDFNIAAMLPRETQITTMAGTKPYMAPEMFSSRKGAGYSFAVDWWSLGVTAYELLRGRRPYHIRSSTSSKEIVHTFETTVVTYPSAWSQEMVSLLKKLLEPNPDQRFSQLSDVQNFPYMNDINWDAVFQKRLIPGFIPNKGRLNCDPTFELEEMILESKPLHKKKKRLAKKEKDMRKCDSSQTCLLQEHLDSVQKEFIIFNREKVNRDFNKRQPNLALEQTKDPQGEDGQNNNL

[5] = target: Dual specificity protein kinase CLK4 (Homo sapiens, UniProt Q9HAZ1); assay: Selectivity interaction (Kinase panel (Invitrogen)) EUB0000639a CLK4; details: at 200 nM
[6] = target: RAC-alpha serine/threonine-protein kinase (Homo sapiens, UniProt P31749); assay: Selectivity interaction (Kinase panel (literature)) EUB0001199aCl AKT1; details: at 1 µM
Chain of RAC-alpha serine/threonine-protein kinase (P31749 whole entry): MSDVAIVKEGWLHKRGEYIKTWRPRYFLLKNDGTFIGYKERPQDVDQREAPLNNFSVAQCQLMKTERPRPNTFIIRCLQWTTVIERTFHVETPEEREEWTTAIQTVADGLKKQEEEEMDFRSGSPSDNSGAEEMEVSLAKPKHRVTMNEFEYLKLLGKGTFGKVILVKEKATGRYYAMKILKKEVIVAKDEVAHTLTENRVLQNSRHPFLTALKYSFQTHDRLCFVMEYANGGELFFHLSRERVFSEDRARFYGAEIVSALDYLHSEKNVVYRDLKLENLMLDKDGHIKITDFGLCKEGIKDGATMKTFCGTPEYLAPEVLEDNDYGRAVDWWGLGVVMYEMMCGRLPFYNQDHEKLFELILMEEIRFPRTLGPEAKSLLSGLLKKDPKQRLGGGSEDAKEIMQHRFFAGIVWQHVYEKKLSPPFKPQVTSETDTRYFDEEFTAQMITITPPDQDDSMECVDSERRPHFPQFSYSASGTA

[7] = target: Phosphatidylinositol 3-kinase catalytic subunit type 3 (Homo sapiens, UniProt Q8NEB9); assay: Selectivity interaction (Adapta Assay) EUB0001632a PIK3C3; details: at 10 µM
Chain of Phosphatidylinositol 3-kinase catalytic subunit type 3 (Q8NEB9 whole entry): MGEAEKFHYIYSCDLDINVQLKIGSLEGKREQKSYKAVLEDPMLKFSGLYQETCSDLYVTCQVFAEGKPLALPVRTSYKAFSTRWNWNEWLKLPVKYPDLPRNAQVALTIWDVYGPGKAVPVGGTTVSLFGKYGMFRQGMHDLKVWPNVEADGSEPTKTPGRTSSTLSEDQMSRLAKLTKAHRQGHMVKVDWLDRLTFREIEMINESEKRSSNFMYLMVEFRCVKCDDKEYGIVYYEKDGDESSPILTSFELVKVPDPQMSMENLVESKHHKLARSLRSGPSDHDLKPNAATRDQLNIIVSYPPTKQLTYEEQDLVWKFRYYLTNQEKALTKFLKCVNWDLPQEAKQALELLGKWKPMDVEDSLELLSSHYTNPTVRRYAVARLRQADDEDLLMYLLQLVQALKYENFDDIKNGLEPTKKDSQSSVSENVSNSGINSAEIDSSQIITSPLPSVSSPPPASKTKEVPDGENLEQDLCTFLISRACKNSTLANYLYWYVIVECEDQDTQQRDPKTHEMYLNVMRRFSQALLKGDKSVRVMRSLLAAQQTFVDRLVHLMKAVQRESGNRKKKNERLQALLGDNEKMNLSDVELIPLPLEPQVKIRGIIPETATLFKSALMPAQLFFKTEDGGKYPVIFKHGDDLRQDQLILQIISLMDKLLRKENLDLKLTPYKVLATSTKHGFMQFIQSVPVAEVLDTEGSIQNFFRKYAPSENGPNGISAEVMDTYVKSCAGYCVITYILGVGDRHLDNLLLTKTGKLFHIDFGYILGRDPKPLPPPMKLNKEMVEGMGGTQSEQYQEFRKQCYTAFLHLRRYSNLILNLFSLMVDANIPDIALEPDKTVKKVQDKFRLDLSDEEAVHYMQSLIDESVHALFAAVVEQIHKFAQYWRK

[8] = target: Mitogen-activated protein kinase 7 (Homo sapiens) (UniProt Q13164); assay: Selectivity interaction (KinomeScan (DiscoverX)) EUB0000695a MAPK7; details: at 100 nM
Chain of Mitogen-activated protein kinase 7 (Homo sapiens) (Q13164 2-816 limits assumed): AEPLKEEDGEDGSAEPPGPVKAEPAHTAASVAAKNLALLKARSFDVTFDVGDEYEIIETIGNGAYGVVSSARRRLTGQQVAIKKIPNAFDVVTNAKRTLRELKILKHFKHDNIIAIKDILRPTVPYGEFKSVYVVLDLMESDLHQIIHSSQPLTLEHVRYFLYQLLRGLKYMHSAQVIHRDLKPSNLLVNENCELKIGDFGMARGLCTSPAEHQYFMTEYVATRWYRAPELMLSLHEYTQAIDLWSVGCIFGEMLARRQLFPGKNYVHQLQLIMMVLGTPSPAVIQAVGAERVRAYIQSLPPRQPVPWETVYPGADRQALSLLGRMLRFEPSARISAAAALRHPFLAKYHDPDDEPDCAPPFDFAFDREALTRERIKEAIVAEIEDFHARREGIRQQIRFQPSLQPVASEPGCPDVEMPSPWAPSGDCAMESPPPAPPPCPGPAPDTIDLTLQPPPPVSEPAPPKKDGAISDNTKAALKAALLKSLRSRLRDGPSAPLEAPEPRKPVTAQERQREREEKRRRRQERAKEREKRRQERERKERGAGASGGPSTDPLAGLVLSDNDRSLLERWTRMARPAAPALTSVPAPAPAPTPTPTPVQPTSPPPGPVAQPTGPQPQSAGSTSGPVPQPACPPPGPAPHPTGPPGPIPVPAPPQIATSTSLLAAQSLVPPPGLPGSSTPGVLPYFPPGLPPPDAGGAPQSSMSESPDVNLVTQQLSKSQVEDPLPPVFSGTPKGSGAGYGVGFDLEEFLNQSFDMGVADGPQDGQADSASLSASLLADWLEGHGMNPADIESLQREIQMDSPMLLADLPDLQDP

[9] = target: Mitogen-activated protein kinase kinase kinase 11 (Homo sapiens) (UniProt Q16584); details: at 10 µM
Chain of Mitogen-activated protein kinase kinase kinase 11 (Homo sapiens) (Q16584 whole entry, looked up): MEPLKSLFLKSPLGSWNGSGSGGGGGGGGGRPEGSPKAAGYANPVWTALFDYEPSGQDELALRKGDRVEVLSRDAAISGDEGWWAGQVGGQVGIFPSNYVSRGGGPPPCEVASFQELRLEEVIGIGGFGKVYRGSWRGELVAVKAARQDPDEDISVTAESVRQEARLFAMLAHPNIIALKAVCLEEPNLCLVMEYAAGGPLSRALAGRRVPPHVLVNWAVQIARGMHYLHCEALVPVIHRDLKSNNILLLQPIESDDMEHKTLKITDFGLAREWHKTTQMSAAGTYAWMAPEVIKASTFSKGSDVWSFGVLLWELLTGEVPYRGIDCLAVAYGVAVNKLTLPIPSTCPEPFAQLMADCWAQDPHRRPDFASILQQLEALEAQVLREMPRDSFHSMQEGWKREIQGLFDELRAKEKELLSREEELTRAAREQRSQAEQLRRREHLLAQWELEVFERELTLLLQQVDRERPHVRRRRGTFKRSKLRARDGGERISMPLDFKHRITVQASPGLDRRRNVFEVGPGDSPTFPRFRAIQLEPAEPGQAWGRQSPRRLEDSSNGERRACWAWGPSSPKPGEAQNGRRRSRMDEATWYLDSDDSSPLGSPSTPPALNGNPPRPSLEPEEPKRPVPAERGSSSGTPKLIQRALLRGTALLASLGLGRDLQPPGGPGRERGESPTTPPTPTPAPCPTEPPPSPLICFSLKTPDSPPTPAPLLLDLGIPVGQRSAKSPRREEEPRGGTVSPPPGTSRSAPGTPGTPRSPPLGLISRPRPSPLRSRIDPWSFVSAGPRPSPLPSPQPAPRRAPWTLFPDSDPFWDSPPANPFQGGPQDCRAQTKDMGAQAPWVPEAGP

[10] = target: Ephrin type-A receptor 4 (Homo sapiens, UniProt P54764); details: at 10 µM
[11] = target: T1, NUAK family SNF1-like kinase 2 (Homo sapiens) (UniProt Q9H093); assay: Selectivity interaction (KinomeScan (DiscoverX)) EUB0000229b NUAK2; details: at 10 µM
T1 sequence (whole entry): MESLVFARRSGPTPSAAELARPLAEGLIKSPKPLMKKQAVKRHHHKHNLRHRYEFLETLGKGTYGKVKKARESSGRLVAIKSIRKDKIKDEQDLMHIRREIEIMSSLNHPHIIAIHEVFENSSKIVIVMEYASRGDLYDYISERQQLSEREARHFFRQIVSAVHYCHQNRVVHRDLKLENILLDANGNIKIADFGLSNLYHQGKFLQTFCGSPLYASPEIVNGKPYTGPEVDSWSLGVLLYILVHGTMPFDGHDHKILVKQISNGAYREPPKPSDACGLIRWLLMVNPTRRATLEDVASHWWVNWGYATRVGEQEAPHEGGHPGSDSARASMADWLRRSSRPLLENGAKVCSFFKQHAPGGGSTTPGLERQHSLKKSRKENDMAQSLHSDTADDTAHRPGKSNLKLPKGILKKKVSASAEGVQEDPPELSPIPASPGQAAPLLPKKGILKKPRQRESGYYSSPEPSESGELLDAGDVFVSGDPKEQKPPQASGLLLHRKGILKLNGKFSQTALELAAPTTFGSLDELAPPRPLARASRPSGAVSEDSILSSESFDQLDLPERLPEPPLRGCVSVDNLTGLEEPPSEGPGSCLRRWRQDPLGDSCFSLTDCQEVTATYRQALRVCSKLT

[12] = target: T2, Dual specificity mitogen-activated protein kinase kinase 3 (Homo sapiens) (UniProt P46734); assay: Selectivity interaction (KinomeScan (DiscoverX)) EUB0000229b MAP2K3; details: at 10 µM
T2 sequence (whole entry): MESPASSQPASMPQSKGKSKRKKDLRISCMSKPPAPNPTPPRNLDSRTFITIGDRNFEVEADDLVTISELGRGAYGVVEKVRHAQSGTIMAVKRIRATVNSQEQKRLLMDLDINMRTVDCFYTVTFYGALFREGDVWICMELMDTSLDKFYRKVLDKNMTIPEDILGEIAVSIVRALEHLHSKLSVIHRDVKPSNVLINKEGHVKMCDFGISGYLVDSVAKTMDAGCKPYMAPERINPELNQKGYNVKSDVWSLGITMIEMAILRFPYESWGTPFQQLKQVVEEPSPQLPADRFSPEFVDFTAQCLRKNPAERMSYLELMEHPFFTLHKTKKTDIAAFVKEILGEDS

[13] = target: ALK tyrosine kinase receptor (Homo sapiens, UniProt Q9UM73); assay: Selectivity interaction (ProQinase) EUB0000171b ALK; details: at 1 µM
[14] = target: LIM domain kinase 2 (Homo sapiens) (UniProt P53671); assay: Selectivity interaction (KinomeScan (DiscoverX)) EUB0000607a LIMK2; details: at 10 µM
Chain of LIM domain kinase 2 (Homo sapiens) (P53671 whole entry, looked up, the tested form may be a part): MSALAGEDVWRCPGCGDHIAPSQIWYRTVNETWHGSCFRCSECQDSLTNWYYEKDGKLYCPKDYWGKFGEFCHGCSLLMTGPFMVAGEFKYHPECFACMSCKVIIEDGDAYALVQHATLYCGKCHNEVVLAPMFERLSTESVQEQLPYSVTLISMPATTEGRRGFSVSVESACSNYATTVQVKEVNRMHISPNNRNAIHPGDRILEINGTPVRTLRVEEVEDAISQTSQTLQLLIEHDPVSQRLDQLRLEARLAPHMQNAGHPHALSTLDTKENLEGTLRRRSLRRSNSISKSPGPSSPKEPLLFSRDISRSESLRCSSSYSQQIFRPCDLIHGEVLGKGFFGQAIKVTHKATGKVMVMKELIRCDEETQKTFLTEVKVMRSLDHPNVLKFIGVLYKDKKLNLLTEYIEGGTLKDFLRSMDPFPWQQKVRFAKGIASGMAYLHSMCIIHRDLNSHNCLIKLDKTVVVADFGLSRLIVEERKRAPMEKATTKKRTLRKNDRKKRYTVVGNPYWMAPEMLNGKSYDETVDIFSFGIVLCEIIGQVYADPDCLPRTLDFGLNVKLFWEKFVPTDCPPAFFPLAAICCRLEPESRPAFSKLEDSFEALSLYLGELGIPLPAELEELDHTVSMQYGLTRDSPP

[15] = target: T3, Serine/threonine-protein kinase haspin (Homo sapiens) (UniProt Q8TF76); assay: Selectivity interaction (Kinase panel (DSF assay)) EUB0001558a GSG2
T3 sequence (whole entry): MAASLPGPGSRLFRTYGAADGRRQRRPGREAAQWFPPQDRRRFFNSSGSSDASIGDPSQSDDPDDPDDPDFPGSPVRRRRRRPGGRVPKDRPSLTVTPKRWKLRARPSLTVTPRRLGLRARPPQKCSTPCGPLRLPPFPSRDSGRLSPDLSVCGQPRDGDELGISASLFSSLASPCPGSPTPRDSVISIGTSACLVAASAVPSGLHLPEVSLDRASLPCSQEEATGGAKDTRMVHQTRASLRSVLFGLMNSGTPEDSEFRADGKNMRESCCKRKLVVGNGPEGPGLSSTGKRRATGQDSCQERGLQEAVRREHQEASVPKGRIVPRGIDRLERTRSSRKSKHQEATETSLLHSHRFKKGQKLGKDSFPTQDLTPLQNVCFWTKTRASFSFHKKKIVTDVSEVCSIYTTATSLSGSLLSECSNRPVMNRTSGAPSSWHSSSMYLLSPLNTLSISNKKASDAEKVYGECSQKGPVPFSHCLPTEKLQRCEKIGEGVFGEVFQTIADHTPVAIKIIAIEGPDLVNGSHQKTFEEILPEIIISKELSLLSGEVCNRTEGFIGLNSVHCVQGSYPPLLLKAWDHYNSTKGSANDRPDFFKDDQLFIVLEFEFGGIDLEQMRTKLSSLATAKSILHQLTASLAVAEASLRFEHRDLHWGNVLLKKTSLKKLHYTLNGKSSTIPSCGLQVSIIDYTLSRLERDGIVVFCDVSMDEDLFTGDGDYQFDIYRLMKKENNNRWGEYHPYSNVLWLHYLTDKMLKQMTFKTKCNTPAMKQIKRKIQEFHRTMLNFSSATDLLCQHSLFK

Compound CC(=O)Nc1cccc(-n2c(=O)n(C3CC3)c(=O)c3c(Nc4ccc(I)cc4F)n(C)c(=O)c(C)c32)c1 has a % of control [1] of 104%.
COc1cc(Nc2nc(C)cc(-c3cnn4nc(OC)ccc34)n2)cc(C(F)(F)F)c1 gave a % of control [2] of 96%.
For CCn1c(-c2nc3cc(C(=O)N4CCCC(N)C4)ccc3n2C)cc2ccccc21 (stereo not given), the pXC50 [3] was 4.7 M.
CN(C)C/C=C/C(=O)Nc1ccc(C(=O)N2CCCC(Nc3ncc(Cl)c(-c4c[nH]c5ccccc45)n3)C2)cc1 (stereo not given) gave a % of control [4] of 99%.
With CC[C@@H]1[C@H](F)C(=O)N[C@@H]1COc1nccc2cc(C(N)=O)c(OC)cc12 [ZIMLOVISERTIB] the % of inhibition [5] was 75.7%.
CN1Cc2nccc(-c3cn(C)nc3-c3ccc(F)cc3)c2C1=O gave a % of inhibition [6] of -3%.
With Cn1cc(-n2cnc3c(NCc4nc5cc(Cl)c(Cl)cc5[nH]4)nc(N4CCOCC4)nc32)cn1 the % of inhibition [7] was -28%.
In the case of Cc1cc(F)c(C(=O)Nc2cccc(-c3nncn3C(C)C)n2)cc1-n1cnc(C2CC2)c1, the % of control [8] is reported as 100%.
Work on CCN(CC)CCCCNc1ncc2cc(-c3cc(OC)cc(OC)c3)c(NC(=O)NC(C)(C)C)nc2n1 yielded a % of control [9] of 100%.
In the case of COCC(=O)NC/C=C/c1ccc2ncnc(Nc3ccc(Oc4ccc(C)nc4)c(C)c3)c2c1 [CP-724714], the % of control [10] is reported as 98%.
With COc1cc(N(C)c2ccnc3ccc(C(F)(F)F)cc23)cc(OC)c1OC the % binding [11] was 86% and the % binding [12] was 72%.
With C=CC(=O)Nc1cccc(C(=O)Nc2ccc(Nc3cc(-c4[nH]c(SC)nc4C)ccn3)cc2)c1 the % of control [13] was 94%.
CNC(=O)Nc1ccc(-c2nc(N3CC4CCC(C3)O4)c3cnn(C4CCC5(CC4)OCCO5)c3n2)cc1 gave a % of control [14] of 88%.
CC(C)(O)[C@H](F)CN1Cc2cc(NC(=O)c3cnn4cccnc34)c(N3CCOCC3)cc2C1=O was tested, and the dTM [15] was 0.4 K.
